# In patent US20140107176A1, “METHOD OF MODULATING A PROSTATE CANCER CELL” (Agency for Science, Technology and Research, priority 2012, published 2014):
# Key:
# Assay type in all cases: cell-based, human
# [1] = tested on: VCaP cells; test: HDAC1, HDAC2, HDAC3 and EZH2 ChIP-qPCR in VCaP cells before and after DHT treatment; conditions: 100 nM DHT, 2 hrs
# Description: FIG. 4. HDACs and EZH2 are recruited to AR binding sites. […] (B) Androgen-depleted VCaP cells were treated with either EtOH or 100 nM DHT for 2 hrs. The cells were then double crosslinked with DSG followed by formaldehyde. […] Error bars represent S.E.M of at least 3 independent experiments.
# (§1) ChIP assay was performed as described previously (47). Briefly, VCaP cells were fixed with 1% formaldehyde (Sigma-Aldrich) for 10 minutes prior to harvesting. Next, the cells were resuspended in SDS lysis buffer containing protease inhibitors. The lysed cells were then sonicated shearing the chromatin into 500-1000 base pairs in length. After pre-clearing with rabbit IgG (Santa Cruz Biotechnology) for 2 hours, the chromatin was immunoprecipitation overnight with the corresponding antibodies and Sepharose beads A (Zymed). After washing the beads, the captured DNA was eluted and de-crosslinked at 65° C. overnight prior to purification with QIAquick spin PCR purification kit (Qiagen). Real-time quantitative Polymerase Chain Reaction (qPCR) was carried out using the KAPA SYBR FAST qPCR kit (Kapa Biosystems).
# All ChIP-qPCR primer sequences can be found in FIG. 8. […] Specifically, cells were first fixed with 2 mM DSG (Pierce) for 45 minutes prior to formaldehyde fixation. […]
# [2] = tested on: VCaP cells; test: Time course expression analysis of AR and ERG mRNA and protein in VCaP cells after DHT stimulation; conditions: 10 nM DHT
# Description: (§2) FIG. 1. Androgen stimulates distinct expression and chromatin binding profiles for AR and ERG in prostate cancer cells. Time course expression analysis of AR and ERG (A) mRNA and (B) protein levels in VCaP cells after stimulation with 10 nM DHT at various time points. Error bars represent S.E.M of at least 3 independent repeats. (C) Androgen stimulates AR and ERG binding to chromatin. Hormone depleted VCaP cells were treated with 100 nM DHT for 0, 2, or 18 hrs. Cells were cross-linked with formaldehyde and chromatin was immunoprecipitated with antibodies against AR or ERG. Immunoprecipitated DNA was quantified with qPCR for specific binding sites and a randomly selected genomic location as control (ctrl) region. Error bars represent S.E.M of at least 3 independent experiments.
# The human prostate cancer cell line, VCaP (American Type Culture Collection), was maintained in DMEM supplemented with 10% fetal bovine serum (FBS), sodium pyruvate, sodium bicarbonate, and penicillin/streptomycin at 37° C. under 5% CO2. Unless otherwise stated, for experiments requiring DHT (Tokyo Chemical Industry) treatment, VCaP cells were grown for 24 hours prior to stimulation in phenol red free DMEM supplemented with 10% charcoal-dextran stripped fetal bovine serum (CDFBS), sodium pyruvate, sodium bicarbonate, and penicillin/streptomycin.
# Cells were harvested and total RNA was collected in TRI-reagent (Sigma) and purified with PureLink™ RNA Mini Kit (Invitrogen). Reverse transcription of RNA to cDNA was carried out using M-MLV reverse transcriptase (Promega). RNA expression levels were measured using quantitative PCR and normalized to GAPDH. The primers for cDNA quantification can be found in FIG. 9.
# The antibodies used for western blot analysis include anti-AR (sc-816), anti ERG (sc-354), anti-Vinculin (sc-25336) from Santa Cruz, anti-AR (AR441) from Labvision, anti-HDAC1 (#05-100), anti-HDAC2 (#05-814) from Millipore, anti-HDAC3 (#3949) and anti-EZH2 (#3147) from Cell Signaling Technology.
# [3] = tested on: VCaP cells; test: AR and ERG ChIP-qPCR in VCaP cells after DHT stimulation; conditions: 100 nM DHT
# Description: as §2, §1
# All ChIP-qPCR primer sequences can be found in FIG. 8. […] Specifically, cells were first fixed with 2 mM DSG (Pierce) for 45 minutes prior to formaldehyde fixation. Antibodies that were used for ChIP analysis include anti-AR (sc-815x), anti-ERG (sc-353), anti-HDAC3 (sc-11417) from Santa Cruz Biotechnology, anti-HDAC1 (ab7028-50), anti-HDAC2 (ab7029-50) from Abcam, and anti-EZH2 (39933) from Active Motif.
# [4] = tested on: EZH2; test: Transcript levels of PSA and FKBP5 in VCaP cells after blocking EZH2 with DZNep (RT-qPCR); conditions: 3 μM DZNep, 24 or 48 hrs
# Description: (§3) FIG. 6. Co-recruitment of ERG, HDACs, and EZH2 to ARBS attenuates AR-dependent transcription. […] (C) VCaP cells grown in full serum (top) or depleted with hormones and treated with 10 nM DHT (bottom) were subjected to varying concentrations of TSA for 24 hours. Total RNA from the treated cells were then harvested and converted to cDNA before quantifying for gene expression levels by qPCR. GAPDH was used as an internal normalization control. Error bars represent S.E.M of at least 3 independent experiments. (D) VCaP cells grown in full serum (top) or depleted with hormone and treated with 10 nM DHT to 8 hours (bottom) were subjected to 3 μM DZNep treatment for 24 (top) or 48 (bottom) hrs. Total RNA was extracted and processed as described in FIG. 6C. Error bars represent S.E.M of at least 3 independent experiments.
# (§4) The human prostate cancer cell line, VCaP (American Type Culture Collection), was maintained in DMEM supplemented with 10% fetal bovine serum (FBS), sodium pyruvate, sodium bicarbonate, and penicillin/streptomycin at 37° C. under 5% CO2. […]
# (§5) Cells were harvested and total RNA was collected in TRI-reagent (Sigma) and purified with PureLink™ RNA Mini Kit (Invitrogen). […] RNA expression levels were measured using quantitative PCR and normalized to GAPDH. The primers for cDNA quantification can be found in FIG. 9. […]
# [5] = tested on: HDACs; test: Transcript levels of PSA and FKBP5 in VCaP cells after blocking HDACs with TSA (RT-qPCR); conditions: 24 hours
# Description: as §3, §4, §5
# [6] = tested on: VCaP cells; test: Flow cytometry of siRNA transfected VCaP cells (subG1 cell death, BrdU proliferation); conditions: silencing of VCL
# Description: (§6) FIG. 7. ERG, HDACs, and EZH2 promote cell invasiveness and inhibit epithelial differentiation by antagonizing AR-dependent transcription of cell adhesion molecules. […] Oncomine Molecular Concept Map analysis was performed to compare ERG-associated (5 kb from TSS) androgen induced genes (>2 fold) that were identified in our study against clinical prostate cancer gene signatures available in the Oncomine database. The criteria for significant associations between node is defined as OD>=2; p-value <le-4. (B) Boxplot showing the relative mRNA expression of VCL in clinical prostate samples from the Yu et al (49) study, which has been deposited in the Oncomine database. […] (G) The effect of AR and ERG silencing on VCL gene expression was analyzed as described in FIG. 3D-E. Error bars represent S.E.M of at least 3 independent experiments. (H) The effect of TSA on the androgen-dependent gene regulation of VCL was analyzed as described in FIG. 6C. […] (I) The effect of DZNep on the androgen-dependent gene regulation of VCL was analyzed as described in FIG. 6D. […] The number of cells per high power field (HPF) that passed through the transwell was counted. […] (K) The effect of VCL suppression on cancer cell survival was assessed by flow cytometry. siRNA transfected cells were fixed prior staining with propidium iodide for flow analysis. […]
# [7] = tested on: VCaP cells; test: Matrigel invasion assay with siRNA-treated VCaP cells; conditions: silencing of VCL, 48 hrs
# Description: as §6
compound,measurement,setting,value
C[C@]12CCC(=O)C[C@@H]1CC[C@@H]1[C@@H]2CC[C@]2(C)[C@@H](O)CC[C@@H]12 [DHT],"recruitment of HDAC1, HDAC2, HDAC3 and EZH2 to AR and ERG co-localized binding sites",[1],in most cases enhanced
same,mRNA and protein levels of ERG,[2],up-regulated
same,time of peak ERG RNA level,[2],6 h
same,time of peak ERG protein level,[2],12 h
same,AR protein level,[2]; across time,remained relatively constant
same,level of AR mRNA,[2]; across time,repressed
same,AR binding to the enhancer AR binding site (ARBS) of PSA,[3]; 2 hrs,recruited strongly
same,ERG recruitment to the ARBS of PSA and the ERGBS associated with PLA1A,[3]; 2 hrs,recruited
same,AR binding to the enhancer AR binding site (ARBS) of PSA,[3]; 18 hrs,reduced significantly
same,ERG recruitment to the ARBS of PSA and the ERGBS associated with PLA1A,[3]; 18 hrs,further enhanced
"Nc1nccc2c1ncn2[C@@H]1C=C(CO)[C@@H](O)[C@H]1O [DZNep, 3-deazaneplanocin A]",expression of PSA and FKBP5,[4],enhanced
"CC(/C=C/C(=O)NO)=C\[C@@H](C)C(=O)c1ccc(N(C)C)cc1 [TSA, Trichostatin A]",PSA and FKBP5 transcript levels,[5]; high concentrations of TSA,repressive
same,PSA and FKBP5 transcript levels,[5]; low concentrations of TSA,enhanced
"siVCL: siRNA against VCL synthesized from 1stBase, rCrUrGrGrCrUrUrGrCrArGrArUrCrCrArArArUrUrU [SEQ ID NO.: 5] (CUGGCUUGCAGAUCCAAAUUU; RNA, backbone not given here)",cell death (subG1 phase),[6],not due to differences
same,"cell proliferation (S phase, BrdU)",[6],not due to differences
same,invasiveness of VCaP cells,[7],increased
